A short description of experiment [1]: (§1) HIV Cell Culture Assay: MT-2 cells and 293T cells were obtained from the NIH AIDS Research and Reference Reagent Program. MT-2 cells were propagated in RPMI 1640 media supplemented with 10% heat-inactivated fetal bovine serum, […]. The 293T cells were propagated in DMEM media supplemented with 10% heat-inactivated fetal bovine serum (FBS), 100 units/mL penicillin G and 100 μg/mL streptomycin. The proviral DNA clone of NL4-3 was obtained from the NIH AIDS Research and Reference Reagent Program. A recombinant NL4-3 virus, in which a section of the nef gene from NL4-3 was replaced with the Renilla luciferase gene, was used as a reference virus. In addition, residue Gag P373 was converted to P373S. Briefly, the recombinant virus was prepared by transfection of the altered proviral clone of NL4-3. Transfections were performed in 293T cells using LipofectAMINE PLUS from Invitrogen (Carlsbad, Calif.), according to manufacturer's instruction. The virus was titered in MT-2 cells using luciferase enzyme activity as a marker. Luciferase was quantitated using the Dual Luciferase kit from Promega (Madison, Wis.), with modifications to the manufacturer's protocol. The diluted Passive Lysis solution was pre-mixed with the re-suspended Luciferase Assay Reagent and the re-suspended Stop & Glo Substrate (2:1:1 ratio). Fifty (50) μL of the mixture was added to each aspirated well on assay plates and luciferase activity was measured immediately on a Wallac TriLux (Perkin-Elmer). Antiviral activities of inhibitors toward the recombinant virus were quantified by measuring luciferase activity in cells infected for 4-5 days with NLRluc recombinants in the presence serial dilutions of the inhibitor. It is filed as cell-based.

Experiment [2] is described as follows: as §1. It is filed as cell-based. The source holds these as a separate data set.

Regarding `C=C(C)[C@@H]1CC[C@]2(NCCC3(O)COC3)CC[C@]3(C)[C@H](CC[C@@H]4[C@@]5(C)CC=C(C6=CC[C@](CF)(C(=O)O)CC6)C(C)(C)[C@@H]5CC[C@]43C)[C@@H]12`, the EC50 in experiment [1] is greater than 0.05 µM; in experiment [2] it was less than 0.05 µM. The corresponding values for `C=C(C)[C@@H]1CC[C@]2(NCC[C@]3(O)CC[C@H](S(C)(=O)=O)CC3)CC[C@]3(C)[C@H](CC[C@@H]4[C@@]5(C)CC=C(C6=CC[C@](CF)(C(=O)O)CC6)C(C)(C)[C@@H]5CC[C@]43C)[C@@H]12` are greater than 0.05 µM and less than 0.05 µM.

`C=C(C)[C@@H]1CC[C@]2(NCCC3(O)COC3)CC[C@]3(C)[C@H](CC[C@@H]4[C@@]5(C)CC=C(C6=CC[C@@](CF)(C(=O)O)CC6)C(C)(C)[C@@H]5CC[C@]43C)[C@@H]12`: the figures for the EC50 in experiment [1] and in experiment [2] were greater than 0.05 µM and less than 0.05 µM, respectively. As for `C=C(C)[C@@H]1CC[C@]2(NCC[C@]3(O)CC[C@@H](S(C)(=O)=O)CC3)CC[C@]3(C)[C@H](CC[C@@H]4[C@@]5(C)CC=C(C6=CC[C@@](CF)(C(=O)O)CC6)C(C)(C)[C@@H]5CC[C@]43C)[C@@H]12`, the half-maximal effective concentration (EC50) is greater than 0.05 µM in experiment [1] and less than 0.05 µM in experiment [2]. `C=C(C)[C@@H]1CC[C@]2(NCCN3CCC(S(C)(=O)=O)CC3)CC[C@]3(C)[C@H](CC[C@@H]4[C@@]5(C)CC=C(C6=CCC(F)(OC=O)CC6)C(C)(C)[C@@H]5CC[C@]43C)[C@@H]12` (some centres not stated): the concentration giving a half-maximal response (EC50) in experiment [2] is 0.004 µM.

On to `C=C(C)[C@@H]1CC[C@]2(NCCN3CCS(=O)(=O)CC(C)C3)CC[C@]3(C)[C@H](CC[C@@H]4[C@@]5(C)CC=C(C6=CC[C@](CF)(OC=O)CC6)C(C)(C)[C@@H]5CC[C@]43C)[C@@H]12` (some centres not stated), for which the EC50 is greater than 0.05 µM in experiment [1] and less than 0.05 µM in experiment [2]. The corresponding values for `C=C(C)[C@@H]1CC[C@]2(NCCN3CCS(=O)(=O)CC(C)C3)CC[C@]3(C)[C@H](CC[C@@H]4[C@@]5(C)CC=C(C6=CC[C@@](CF)(OC=O)CC6)C(C)(C)[C@@H]5CC[C@]43C)[C@@H]12` (some centres not stated) are greater than 0.05 µM and less than 0.05 µM. The corresponding values for `C=C(C)[C@@H]1CC[C@]2(NCCN3CCS(=O)(=O)CC3C(=O)OCC)CC[C@]3(C)[C@H](CC[C@@H]4[C@@]5(C)CC=C(C6=CC[C@@](CF)(C(=O)O)CC6)C(C)(C)[C@@H]5CC[C@]43C)[C@@H]12` (some centres not stated) are less than 0.05 µM and less than 0.05 µM. On to `C=C(C)[C@@H]1CC[C@]2(NCCN3CCS(=O)(=O)CC3)CC[C@]3(C)[C@H](CC[C@@H]4[C@@]5(C)CC=C(C6=CCC(C)(OC=O)CC6)C(C)(C)[C@@H]5CC[C@]43C)[C@@H]12` (some centres not stated), for which the EC50 in experiment [2] was determined as 0.002 µM.

In the case of `C=C(C)[C@@H]1CC[C@]2(NCCC(O)(C3CC3)C3CC3)CC[C@]3(C)[C@H](CC[C@@H]4[C@@]5(C)CC=C(C6=CC[C@](CF)(C(=O)OCc7ccccc7)CC6)C(C)(C)[C@@H]5CC[C@]43C)[C@@H]12`, the values for the EC50 in experiment [1] and in experiment [2] were greater than 0.05 µM and less than 0.05 µM, respectively. The corresponding values for `CC(C)[C@@H]1CC[C@]2(NCCN3CCS(=O)(=O)CC3)CC[C@]3(C)[C@H](CC[C@@H]4[C@@]5(C)CC=C(C6CCC(CF)(C(=O)O)CC6)C(C)(C)[C@@H]5CC[C@]43C)[C@@H]12` (some centres not stated) are greater than 0.05 µM and less than 0.05 µM. For `C=C(C)[C@@H]1CC[C@]2(NCCN3CCS(=O)(=O)CC3)CC[C@]3(C)[C@H](CC[C@@H]4[C@@]5(C)CC=C(C6=CCC(CF)(OC=O)CC6)C(C)(C)[C@@H]5CC[C@]43C)[C@@H]12` (some centres not stated), in that order: 0.21 µM and 0.002 µM. For `C=C(C)[C@@H]1CC[C@]2(NCCN3CCS(=O)(=O)CC3)CC[C@]3(C)[C@H](CC[C@@H]4[C@@]5(C)CC=C(C6=CC[C@@](CF)(OC=O)CC6)C(C)(C)[C@@H]5CC[C@]43C)[C@@H]12`, in that order: 0.17 µM and 0.003 µM. On to `C=C(C)[C@@H]1CC[C@]2(NC(CN3CCS(=O)(=O)CC3)C(F)(F)F)CC[C@]3(C)[C@H](CC[C@@H]4[C@@]5(C)CC=C(C6=CC[C@](CF)(C(=O)O)CC6)C(C)(C)[C@@H]5CC[C@]43C)[C@@H]12` (some centres not stated), for which the EC50 in experiment [1] and in experiment [2] was greater than 0.05 µM in each case. On to `C=C(C)[C@@H]1CC[C@]2(NCCN3CCS(=O)(=O)CC3)CC[C@]3(C)[C@H](CC[C@@H]4[C@@]5(C)CC=C(C6=CC[C@](CF)(OC=O)CC6)C(C)(C)[C@@H]5CC[C@]43C)[C@@H]12`, for which the EC50 in experiment [1] was 0.78 µM; in experiment [2] it was 0.002 µM. As for `C=C(C)[C@@H]1CC[C@]2(NCCN3CC(C)S(=O)(=O)C(C)C3)CC[C@]3(C)[C@H](CC[C@@H]4[C@@]5(C)CC=C(C6=CC[C@](CF)(OC=O)CC6)C(C)(C)[C@@H]5CC[C@]43C)[C@@H]12` (some centres not stated), the EC50 in experiment [1] is greater than 0.05 µM; in experiment [2] it was less than 0.05 µM. For `C=C(C)[C@@H]1CC[C@]2(NCCN3CC(C)S(=O)(=O)C(C)C3)CC[C@]3(C)[C@H](CC[C@@H]4[C@@]5(C)CC=C(C6=CC[C@@](CF)(OC=O)CC6)C(C)(C)[C@@H]5CC[C@]43C)[C@@H]12` (some centres not stated), in that order: greater than 0.05 µM and less than 0.05 µM.

One may read the EC50 as the concentration at which the effect is half-maximal.

Values taken from ChEMBL document CHEMBL5726774, “Triterpenoids with HIV maturation inhibitory activity” (2019).
